Measured values reported in patent US6610686B1, “Use of pirenoxine for the protection of corneal tissues in photokeractomy” (Ausimont S.p.A., priority 1999, dated 2003).

Tests used:
[1] = system: rabbit corneas incubated with f-MLP-stimulated autologous macrophages; assay: In vitro protection of whole corneas against ROS from f-MLP-stimulated autologous rabbit macrophages; assay type: cell-based; settings: 10^−5 M pirenoxine, 10^−7 M f-MLP stimulated macrophages, two hours at 37° C.
Procedure: In order to evaluate the inhibition exerted by pirenoxine against the oxidizing activity of macrophage produced ROS at level of the cornea, the following procedure was carried out: (a) broncho-alveolar washing of the rabbit to obtain the macrophages; (b) abstraction of the cornea from the rabbit eye; (c) incubation of the corneas with 10^−7 M f-MLP stimulated or not stimulated macrophages (800000 cells/well) for two hours at 37° C., 5 % CO2 in presence and in absence of 10^−5 M pirenoxine; (d) separation and homogenization of the epithelial and endothelial corneal cells and subsequent determination of fluorescence as described in b, c, d and f steps of the above methodology.

[2] = system: epithelium and endothelium homogenates of rabbit corneas; assay: In vitro Fe(III)-ascorbic acid induced lipid peroxidation in epithelium and endothelium homogenates of rabbit corneas; assay type: biochemical; settings: homogenate + 10 μM FeCl3 and ascorbic acid, 27° C., 30 minutes, 10^−5 M pirenoxine; mean ± SEM
Text: The experimental procedure for the evaluation of the inhibiting action against the lipid-peroxidation exerted by pirenoxine in cornea epithelial and endothelial cells made use of Fe(III)-ascorbic acid system to induce the peroxidative phenomenon. The oxidative attack on membrane lipids was confirmed by the spectrophotometric determinations of both the conjugated dienes and fluorescent lipid-soluble substances which, as known, are generated by the oxidative degradation of lipid molecules.
Used experimental procedure included the following steps: a) abstraction of the cornea from the eye of male pigmented rabbits suitably selected and prepared for the study; b) incubation of the latter in 100 μM phosphate buffer, pH 7,5, in the presence of 1000 U collagenase and 5 μM CaCl2 for 20 hours at 37° C.; c) centrifugation at 35000 rpm at 0° C. for 10 minutes and washings of the sediment with phosphate buffer; d) homogenization of the cellular sediment in 1 ml of buffer, pH 7,4 (10% w/v); e) incubation of a suitable homogenate aliquot with 10 μM FeCl3 and ascorbic acid in phosphate buffer, pH 7,4, at 27° C. for 30 minutes in presence and in absence of 10^−5 M pirenoxine; f) extraction of the lipid-soluble substances using chloroform/methanol mixture (2:1 v/v). […]

[3] = system: epithelial corneal cells (SIRC); assay: In vitro protection of UV312 irradiated epithelial corneal cells (SIRC); assay type: cell-based; settings: for Lipid-soluble fluorescent substances, U/mg protein / Lipid-soluble fluorescent substances, U/well: UV312 80 mJ/cm^2, 10^−5 pirenoxine, 17 hours at 37° C.
Procedure: The protective effect of pirenoxine on epithelial comeal cells (SIRC) irradiated for 36″ using UV312 light (80 mJ/cm^2), according to the following procedure: (a) the comeal cells were plated in 35 mm diameter wells; (b) at 80% confluency the cells were contacted with a medium at low (0,2%) serum content to inhibit the proliferation thereof during the experiment (c) the cells were irradiated with UV light in presence and in absence of 10^−5 pirenoxine, incubated at 37° C. for 17 hours and homogenized in 10 mM f) phosphate buffer, pH 7,4; (d) the lipid-soluble fluorescent substances and the proteins contained in suitable homogenate aliquots were determined.

rabbit corneas = assay: In vivo effect on rabbit corneas after intrastromal injection of UV irradiated ferritin; settings: two drops of 0,005% pirenoxine every hour 8 times a day over 4 days, corneas at 5th day
Procedure: (a) rabbits were anaesthetized by low pentobarbital doses (20 mg/kg); (b) 25 μl of 50 μM ferritin in 0,15 M NaCl were injected in the stroma of the cornea by a 0,33×13 mm/29G insulin syringe whereas the controls were treated with 25 μl physiological solution; (c) in the eyes every hour two drops (1 drop=30 μl) of 0,005% pirenoxine in 0,145 M NaCl 8 times a day over 4 days were instilled, whereas the controls were treated only with the solvent, in the same amount and frequency; (d) at the 5th day the animals were sacrificed using a pentobarbital overdose (100 mg/kg); (e) the corneas were abstracted and the tissue cells separated and collected according to the procedure described in the ex vivo experiment; (f) the conjugated dienes and fluorescent soluble lipid contained in suitable homogenate aliquots were determined.
In vivo conjugated diene and lipid soluble fluorescence substance formation in corneas 5 days after the rabbit eyes were submitted to intrastromal injection of UV-irradiated ferritin and topical instillation of pirenoxine solution (2 drops every hour for 8 hr over 4 days)

[4] = reconstituted aqueous solution, ambient temperature; cited from earlier work

O=C(O)c1cc(O)c2c3nc4ccccc4oc-3cc(=O)c2n1 [pirenoxine, 1-hydroxy-5-oxo-5H-pyrido-[3,2a]-phenoxazin-3-carboxylic acid]
Induced fluorescence of lipid soluble substances (FIG. 1) [1]: remarkably lower than the controls and are comparable to those of normal corneas (basal values)
Conjugated dienes [2]: 2.77 ± 0.07 nmol/hemicornea
Fluorescence (fluorescent lipid-soluble substances) [2]: 5.22 ± 0.13 U/hemicornea
Lipid-soluble fluorescent substances, U/mg protein ([3]; Cells 14/01): 2.76 U/mg protein
Lipid-soluble fluorescent substances, U/well ([3]; Cells 14/01): 0.92 U/well
Lipid-soluble fluorescent substances, U/mg protein ([3]; Cells 17/12): 9.08 U/mg protein
Lipid-soluble fluorescent substances, U/well ([3]; Cells 17/12): 3.66 U/well
Lipid-soluble fluorescent substances, U/mg protein ([3]; Cells 20/12): 7.35 U/mg protein
Lipid-soluble fluorescent substances, U/well ([3]; Cells 20/12): 1.8 U/well
Lipid-soluble fluorescent substances relative to irradiated cells not protected by pirenoxine ([3]; UV312 irradiation, 10^−5 pirenoxine): notably lower (about two and half times)
Conjugated diene (rabbit corneas): 1.7 Nmoles/hemicornea
Fluorescence (rabbit corneas): 4.4 Unit/hemicornea
Storage time of reconstituted solution without degradation [4]: about two weeks without degradation
